Test system: rat venous stasis model, LPS-induced ARDS
Test: Rat venous stasis (Wessler) model after LPS-induced lung injury (ARDS induced thrombosis)
Assay type: in vivo
Settings: 250 mg/kg oral gavage 3, 24, 48, 72 h post LPS instillation; Sprague-Dawley rats; 30 min stasis
From the text: This study assessed the efficacy of ABC294640 to reduce the incidence of adverse thromboembolic events in situ in acute respiratory distress syndrome (ARDS) conditions using a rat venous stasis model. This assay is designed to measure thrombotic risks following LPS-induced lung injury. LPS-induced lung injury is one of the most commonly used rodent models for ARDS and was described to mimic the neutrophilic inflammatory response observed in ARDS patients. The mechanism of LPS-induced ARDS is based on damage to endothelial cells and a systemic inflammatory response. […]
Sprague-Dawley rats (male) weighing between 275 and 400 g were used for this study. […] The body weight was recorded before the instillation and 24, 48 and 72 hours post-instillation.
In this study, ARDS was induced by intratracheal instillation of LPS. […] The segment was then excised and its content scored. […]
• 1. Prior LPS or saline instillation, the functional respiratory parameters of all rat was assessed by whole-body plethysmography and SpO2 was evaluated on conscious rat with a collar probe pulse oximeter. […] The respiratory rate, the Penh and the inspiratory/expiratory time measurements was analyzed. • 2. […]
• 5. Rats were evaluated periodically to ensure animal well-being (general behavior and daily body weight). • 6. […] SpO2 and whole-body plethysmography were also evaluated 24, 48 and 72 hours post-instillation. • 8. […]

O=C(NCc1ccncc1)C12CC3CC(C1)CC(c1ccc(Cl)cc1)(C3)C2 [ABC294640, 3-(4-chlorophenyl)-adamantane-1-carboxylic acid (pyridin-4-ylmethyl)amide]
thrombosis (blood clot length, weight and total thrombus score): reduction of thrombosis

Reference: patent US11471448B2 (priority 2020, dated 2022)
